{
  "source": "paper PMC12301304",
  "about": "(Frontiers in Pharmacology, 2025)",
  "key": {"CYP1a2": {"molecular_target": "T1, CYP1a2 (Rattus norvegicus, UniProt P04799)", "T1 sequence (P04799 1-513)": "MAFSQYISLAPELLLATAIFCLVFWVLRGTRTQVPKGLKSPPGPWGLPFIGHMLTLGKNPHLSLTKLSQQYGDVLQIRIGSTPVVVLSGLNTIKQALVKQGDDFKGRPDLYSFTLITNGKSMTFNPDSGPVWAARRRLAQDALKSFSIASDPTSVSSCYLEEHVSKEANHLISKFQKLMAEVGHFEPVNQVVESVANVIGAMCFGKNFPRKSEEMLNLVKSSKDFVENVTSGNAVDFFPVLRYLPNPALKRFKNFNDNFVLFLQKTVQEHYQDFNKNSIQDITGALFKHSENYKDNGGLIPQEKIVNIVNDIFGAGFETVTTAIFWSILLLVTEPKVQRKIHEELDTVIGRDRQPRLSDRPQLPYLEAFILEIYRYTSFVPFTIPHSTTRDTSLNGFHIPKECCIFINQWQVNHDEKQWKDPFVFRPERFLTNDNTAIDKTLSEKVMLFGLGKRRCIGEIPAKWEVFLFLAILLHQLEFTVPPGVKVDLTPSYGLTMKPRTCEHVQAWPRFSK", "design": "from tissue; host or cells: live male Sprague-Dawley rats (whole animal, mainly liver)", "settings": "in vivo", "description": "(§1) The effect of the Zhicaowu–Hezi combination on CYP450 enzymes in rats was evaluated by examining the pharmacokinetics of theophylline (CYP1a2), metoprolol (CYP2d2), bupropion (CYP2b1), omeprazole (CYP2c13), chlorzoxazone (CYP2e1), testosterone (CYP3a1), and diclofenac (CYP2c11).\n(§2) The collected blood was placed in sodium heparin-treated centrifuge tubes and centrifuged at 4°C for 10 min at 3,000 RPM. […] After 10 min of sedimentation, the supernatant was extracted through a 0.22-μm microporous membrane, 20 μL of which was injected into HPLC. The pharmacokinetic parameters of each probe drug were calculated using the non-atrial compartment model in Drug and Statistics software (DAS, 3.0; Shanghai, China)."}, "CYP2b1": {"molecular_target": "T2, CYP2b1 (Rattus norvegicus, UniProt P00176)", "T2 sequence (P00176 1-491)": "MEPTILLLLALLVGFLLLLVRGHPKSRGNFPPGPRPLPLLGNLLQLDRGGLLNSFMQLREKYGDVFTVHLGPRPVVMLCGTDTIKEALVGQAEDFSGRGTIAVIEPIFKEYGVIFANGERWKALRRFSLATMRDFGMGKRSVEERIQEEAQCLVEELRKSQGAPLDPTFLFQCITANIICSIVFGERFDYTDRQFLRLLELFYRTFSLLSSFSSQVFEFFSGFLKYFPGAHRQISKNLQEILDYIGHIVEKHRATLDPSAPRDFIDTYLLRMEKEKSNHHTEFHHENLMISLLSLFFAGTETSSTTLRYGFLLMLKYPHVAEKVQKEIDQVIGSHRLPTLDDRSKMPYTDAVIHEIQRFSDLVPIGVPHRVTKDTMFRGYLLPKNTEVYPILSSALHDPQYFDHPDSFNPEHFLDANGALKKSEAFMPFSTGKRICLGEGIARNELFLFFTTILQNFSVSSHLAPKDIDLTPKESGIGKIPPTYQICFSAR", "design": "from tissue; host or cells: live male Sprague-Dawley rats (whole animal, mainly liver)", "settings": "in vivo", "description": "as §1, §2"}},
  "data": [
    {"smiles": "CCC1(c2ccccc2)C(=O)NC(=O)NC1=O", "note": "[P, phenobarbital sodium]", "values": [
      {"measurement": "theophylline AUC(0-t)", "setting": "CYP1a2", "value": "12257 ± 742", "unit": "ng·h/mL"},
      {"measurement": "theophylline AUC(0-∞)", "setting": "CYP1a2", "value": "13565 ± 801", "unit": "ng·h/mL"},
      {"measurement": "theophylline CLz/F", "setting": "CYP1a2", "value": "7,744.326 ± 56.253 mL/h/kg"},
      {"measurement": "theophylline Cmax", "setting": "CYP1a2", "value": "1138 ± 201", "unit": "ng/mL"},
      {"measurement": "theophylline t1/2 z", "setting": "CYP1a2", "value": "2.509 ± 0.436", "unit": "h"},
      {"measurement": "bupropion AUC(0-t)", "setting": "CYP2b1", "value": "13249 ± 1396", "unit": "ng·h/mL"},
      {"measurement": "bupropion AUC(0-∞)", "setting": "CYP2b1", "value": "13714 ± 1057", "unit": "ng·h/mL"},
      {"measurement": "bupropion CLz/F", "setting": "CYP2b1", "value": "7.53418 ± 1.2563", "unit": "mL/min/kg"},
      {"measurement": "bupropion Cmax", "setting": "CYP2b1", "value": "1151 ± 138", "unit": "ng/mL"},
      {"measurement": "bupropion t1/2 z", "setting": "CYP2b1", "value": "15.564 ± 0.555", "unit": "h"}
    ]}
  ]
}
